Results reported in patent US7781393B2, “Methods for inhibiting tumor cell growth” (Dana-Farber Cancer Institute, Inc., priority 2004, dated 2010).

Tests used:
Type in all cases: cell-based, human
[1] = test system: primary MM tumor cells; assay: MTT survival assay, short-term culture of primary MM tumor cells; conditions: all primary patient samples tested
Description: The dexamethasone (Dex)-sensitive parental line MM-1S and its Dex-resistant subline MM-1R cells were kindly provided by Dr Steven Rosen (Northwestern University, Chicago, Ill.); the chemo-sensitive parental MM cell line RPMI-8226/S, and its chemo-resistant sublines RPMI-8226/Dox40 (doxorubicin-resistant), RPMI-8226/MR20 (mitoxantrone-resistant), RPMI-8226/LR5 (melphalan-resistant) cells were kindly provided by Dr William Dalton (lee Moffitt Cancer Center, Tampa, Fla.); the OCI-My5 cells were provided by Dr Meissner (University of Ontario, Toronto, Canada); the EJM, LP-1, KMM1, K620, OPM-1, and OPM-2 cells were provided by Dr Leif Bergsagel; INA-6 cells were provided by Renate Burger (University of Erlangen-Nuernberg, Germany); XG-1 cells were obtained from Dr Pierfrancesco Tassone (University of Magna Grecia, Italy); NCI-H929 and U266 cells were purchased from American Type Cell Culture (ATCC); MM-1S-myrAkt and MM-1S-Bcl-2 cells were established by stable transfection of MM-1S cells with constructs encoding for constitutively active myristoylated form of Akt and for Bcl-2, respectively. […] Purity (>95%) was assessed by both morphology and flow cytometry (Becton-Dickinson FACSort, Franklin Lakes, N.J.). […]

[2] = test system: MM cells, prostate cancer cells, SK-N-MC sarcoma cells; assay: Sensitization of tumor cells to other anti-cancer therapies in vitro; conditions: MM cells to doxorubicin, melphalan, dexamethasone, TRAIL/Apo2L, PS-341, SK-N-MC to Fas ligation
Description: The ability of IGF-1R inhibitors to sensitize tumor cells to other anti-cancer therapies in vitro was determined.

[3] = test system: SW579 papillary thyroid carcinoma cells; assay: VEGF ELISA, IGF-1-stimulated thyroid carcinoma cells; conditions: 750 nM; IGF-1 200 ng/mL in serum-free medium
Description: Flow cytometric analyses for IGF-1R, and IGF-2R were performed as previously described on a EPICS-XL-MCL flow cytometer (Beckman Coulter). Previously described protocols were applied for immunoblotting analyses; TRAP telomerase activity assay; 20S proteasome chymotryptic activity assay; DNA binding activity ELISAs for quantitative assessments of NF-κB and HIF-1a transcriptional activities. VEGF and IGF-1 ELISAs were performed according to manufacturer's instructions (R&D Systems, Minneapolis, Minn.).

Structure (SMILES): Nc1ncnc2c1c(-c1cccc(OCc3ccccc3)c1)cn2[C@H]1C[C@H](CN2CCCC2)C1 [ADW-742, trans-5-(3-benzyloxy-phenyl)-7-(3-pyrrolidin-1-ylmethyl-cyclobutyl)-7H-pyrrolo[2,3-d]pyrimidin-4-ylamine]
- serum-induced growth of primary MM patient samples [1]: completely suppresses
- sensitivity of tumor cells to other anti-cancer therapies [2]: increases the sensitivity
- IGF-1-induced secretion of VEGF [3]: suppresses
